Assay results as given in PubChem BioAssay AID1919004 (Molecular Pharmacology Branch, DTP, NCI, 2023).

Tested on: 883617-216-R-J1-PDC complex spheroids, growth, % test/control
Experiment: Anticancer human tumor 883617-216-R-J1-PDC patient-derived bladder carcinoma cell line growth inhibition [AhR]
Conditions: for IC50: curve of first compound; for viability, T/C: stronger effect = lower value
Text: Multicellular complex tumor spheroid response to aryl hydrocarbon receptor antagonists in combination with a variety of drugs and investigational agents in selected tumor cell lines
The current study was undertaken to assess response to aryl hydrocarbon receptor antagonists in combination with standard-of-care drugs and investigational agents in solid tumor complex spheroid models. Complex spheroids include a stromal component modeled by human endothelial cells (HUVEC) and fibroblasts modeled by human mesenchymal stem cells (MSCs). The concentration ranges selected for each drug and investigational agent were based upon clinically achievable concentrations if the clinical Cmax of the agent was known.
Compounds. The drugs and investigational agents: BAY 2416964 (NSC825713), GNF351 (NSC835774), CH-223191 (NSC835775), CPI-455 (NSC825282), aza-TdCyd (NSC777586), decitabine (NSC127716), belinostat (NSC758774), entinostat (NSC756642), pevonedistat (NSC761192), tazemetostat (NSC777109), talazoparib (NSC765396), olaparib (NSC753686), selinexor (NSC780203), nedisertib (M3814, NSC802822), bortezomib (NSC756655), venetoclax (NSC766270), doxorubicin (NSC123127), elimusertib (BAY189344, NSC800525), ceralasertib (AZD6738, NSC777638), TAK-243 (NSC785004), alisertib (NSC759677), etoposide (NSC141540), topotecan (NSC609699), eribulin (NSC707389), gemcitabine (NSC613327), carboplatin (NSC241240), cisplatin (NSC119875), and SN-38 (NSC673596) were obtained from the National Cancer Institute (NCI) Developmental Therapeutics Program Chemical Repository (32). The FDA-approved anticancer drug set is available from the Developmental Therapeutics Program at https://dtp.cancer.gov/organization/dscb/obtaining/available plates.htm. […] The stock solutions were prepared in dimethyl sulfoxide (DMSO, Sigma-Aldrich, St. Louis, MO, cat. D2650), except for the platinum compounds which were prepared in saline (Quality Biological, Gaithersburg, MD, cat. 114-055-101), at 800-fold the tested concentration and stored at -70 degrees C prior to their use. All drugs and investigational agents were tested over a range starting from a high concentration at or near the clinical Cmax and decreasing in half-log increments. If the clinical Cmax for an agent had not been determined, the highest concentration tested was 10 microM (Table 1).
Cell Culture. All cells were maintained in an incubator at 37 degrees C and 5% CO2 with 95% humidity. The PDC lines were cultured according to standard operating procedures established by the NCI PDMR (https://pdmr.cancer.gov). Briefly, all PDCs were thawed and cultured in Matrigel-coated flasks prepared with a working solution of 1X Ham's F-12 nutrient mix, without supplementation (Invitrogen, Waltham, MA, cat. 11765054), 100 U/mL penicillin-streptomycin (Invitrogen, cat. 15140122), and 2.5% Matrigel (Corning Inc., Corning, NY, cat. 354248) for the first three passages. All PDCs were cultured in complete DMEM/F-12 media containing advanced DMEM/F-12 (Invitrogen, cat. 12634028), 4.9% defined fetal bovine serum, heat inactivated (HyClone Laboratories Inc., Logan, UT, cat. SH30070.03HI), 389 ng/mL hydrocortisone (Sigma-Aldrich, cat. H4001), 9.7 ng/mL human EGF recombinant protein (Invitrogen, cat. PHG0313), 23.4 microg/mL adenine (Sigma-Aldrich, cat. A2786), 97.3 U/mL penicillin-streptomycin (Invitrogen, cat. 15140122), 1.9 mM L-glutamine (Invitrogen, cat. 25030081), and 9.7 microM Y-27632 dihydrochloride (Tocris Bioscience, Bristol, United Kingdom, cat. 1254). The PDCs were cultured in complete DMEM/F12 media without 10 microM Y-27632 dihydrochloride for at least two passages prior to the screen. The established cell lines NCI-H1341 and […] were cultured in DMEM/F-12, HEPES (Invitrogen, cat. 11330032), 5% defined fetal bovine serum (HyClone Laboratories Inc., cat. SH30070.03), ITS premix universal culture supplement [insulin (5 microg/mL), transferrin (5 microg/mL), and selenious acid (5 ng/mL)] […]

[1] = second compound 0.1 µM, first compound 0.0316 µM
[2] = second compound 0.1 µM, first compound 0.1 µM
[3] = second compound 0.316 µM, first compound 0.0316 µM
[4] = second compound 0.316 µM, first compound 0.1 µM
[5] = second compound 1 µM, first compound 0.0316 µM
[6] = second compound 1 µM, first compound 0.1 µM
[7] = second compound 3.16 µM, first compound 0.0316 µM
[8] = second compound 3.16 µM, first compound 0.1 µM
[9] = second compound 10 µM, first compound 0.0316 µM
[10] = second compound 10 µM, first compound 0.1 µM
[11] = second compound 0.1 µM, first compound 0.316 µM
[12] = second compound 0.1 µM, first compound 1 µM
[13] = second compound 0.1 µM, first compound 3.16 µM
[14] = second compound 0.1 µM, first compound 10 µM
[15] = second compound 0.316 µM, first compound 0.316 µM
[16] = second compound 0.316 µM, first compound 1 µM
[17] = second compound 0.316 µM, first compound 3.16 µM
[18] = second compound 0.316 µM, first compound 10 µM
[19] = second compound 1 µM, first compound 0.316 µM
[20] = second compound 1 µM, first compound 1 µM
[21] = second compound 1 µM, first compound 3.16 µM
[22] = second compound 1 µM, first compound 10 µM
[23] = second compound 3.16 µM, first compound 0.316 µM
[24] = second compound 3.16 µM, first compound 1 µM
[25] = second compound 3.16 µM, first compound 3.16 µM
[26] = second compound 3.16 µM, first compound 10 µM
[27] = second compound 10 µM, first compound 0.316 µM
[28] = second compound 10 µM, first compound 1 µM
[29] = second compound 10 µM, first compound 3.16 µM
[30] = second compound 10 µM, first compound 10 µM
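Note: exposure lasted 7 days after dosing on day 3 of spheroid growth.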

| Compound | IC50 (second compound 0.1 µM) [µM] | IC50 (second compound 0.316 µM) [µM] | IC50 (second compound 1 µM) [µM] | IC50 (second compound 3.16 µM) [µM] | IC50 (second compound 10 µM) [µM] | viability, T/C [1] [%] | viability, T/C [2] [%] | viability, T/C [3] [%] | viability, T/C [4] [%] | viability, T/C [5] [%] | viability, T/C [6] [%] | viability, T/C [7] [%] | viability, T/C [8] [%] | viability, T/C [9] [%] | viability, T/C [10] [%] | viability, T/C [11] [%] | viability, T/C [12] [%] | viability, T/C [13] [%] | viability, T/C [14] [%] | viability, T/C [15] [%] | also measured |
| --- | --- | --- | --- | --- | --- | --- | --- | --- | --- | --- | --- | --- | --- | --- | --- | --- | --- | --- | --- | --- | --- |
| CC[C@@]1(O)C(=O)OCc2c1cc1n(c2=O)Cc2cc3c(CN(C)C)c(O)ccc3nc2-1 + CC(CO)NC(=O)c1cc(-c2ccc(Cl)cc2)nn(-c2cnn(C)c2)c1=O | > 0.1 | > 0.1 | > 0.1 | > 0.1 | > 0.1 | 82.2 | 78.4 | 117 | 118 | 62 | 97 | 95.5 | 70.5 | 113 | 112 | – | – | – | – | – | viability, T/C (second compound 0.1 µM, first compound 0.000316 µM): 66.5%; viability, T/C (second compound 0.1 µM, first compound 0.001 µM): 93.5%; viability, T/C (second compound 0.1 µM, first compound 0.00316 µM): 102%; viability, T/C (second compound 0.1 µM, first compound 0.01 µM): 52.4%; viability, T/C (second compound 0.316 µM, first compound 0.000316 µM): 87.9%; viability, T/C (second compound 0.316 µM, first compound 0.001 µM): 100%; viability, T/C (second compound 0.316 µM, first compound 0.00316 µM): 103%; viability, T/C (second compound 0.316 µM, first compound 0.01 µM): 104%; viability, T/C (second compound 1 µM, first compound 0.000316 µM): 81.3%; viability, T/C (second compound 1 µM, first compound 0.001 µM): 78%; viability, T/C (second compound 1 µM, first compound 0.00316 µM): 107%; viability, T/C (second compound 1 µM, first compound 0.01 µM): 58.3%; viability, T/C (second compound 3.16 µM, first compound 0.000316 µM): 73.7%; viability, T/C (second compound 3.16 µM, first compound 0.001 µM): 104%; viability, T/C (second compound 3.16 µM, first compound 0.00316 µM): 63.6%; viability, T/C (second compound 3.16 µM, first compound 0.01 µM): 81.9%; viability, T/C (second compound 10 µM, first compound 0.000316 µM): 88.1%; viability, T/C (second compound 10 µM, first compound 0.001 µM): 95%; viability, T/C (second compound 10 µM, first compound 0.00316 µM): 80.5%; viability, T/C (second compound 10 µM, first compound 0.01 µM): 66.4% |
| COc1cc(C2c3cc4c(cc3C(OC3OC5COC(C)OC5C(O)C3O)C3COC(=O)C23)OCO4)cc(OC)c1O (stereo not given) + CC(CO)NC(=O)c1cc(-c2ccc(Cl)cc2)nn(-c2cnn(C)c2)c1=O | > 10 | > 10 | > 10 | > 10 | > 10 | 75.2 | 90.2 | 63.8 | 84.5 | 60.3 | 76.7 | 81.1 | 85.8 | 91.7 | 70.8 | 108 | 66.3 | 84.1 | 60.1 | 85.3 | viability, T/C [16]: 67.7%; viability, T/C [17]: 101%; viability, T/C [18]: 69.4%; viability, T/C [19]: 90%; viability, T/C [20]: 83.5%; viability, T/C [21]: 84.3%; viability, T/C [22]: 53.3%; viability, T/C [23]: 74.3%; viability, T/C [24]: 69.3%; viability, T/C [25]: 65%; viability, T/C [26]: 102%; viability, T/C [27]: 89.6%; viability, T/C [28]: 81.3%; viability, T/C [29]: 53.5%; viability, T/C [30]: 77.3% |
| Nc1ccn(C2OC(CO)C(O)C2(F)F)c(=O)n1 (stereo not given) + CC(CO)NC(=O)c1cc(-c2ccc(Cl)cc2)nn(-c2cnn(C)c2)c1=O | > 10 | > 10 | > 10 | > 10 | > 10 | 82.9 | 91.6 | 82.2 | 99 | 96.8 | 76.4 | 81 | 91.8 | 63.2 | 124 | 95.4 | 88.3 | 58.7 | 85.3 | 97.8 | viability, T/C [16]: 84.8%; viability, T/C [17]: 85.8%; viability, T/C [18]: 86.3%; viability, T/C [19]: 113%; viability, T/C [20]: 77.7%; viability, T/C [21]: 75.7%; viability, T/C [22]: 72.1%; viability, T/C [23]: 108%; viability, T/C [24]: 52.7%; viability, T/C [25]: 63.4%; viability, T/C [26]: 63.5%; viability, T/C [27]: 87%; viability, T/C [28]: 72.7%; viability, T/C [29]: 78.2%; viability, T/C [30]: 76.6% |
